Test results as given in paper PMC9101642 (Molecules, 2022).

Tested on: MCF-7 cells
Assay: Cell cycle distribution by flow cytometry
Format: cell-based, human
Settings: 0.1 nM, 24 h

Row | Compound | Cell Cycle (%) G0/G1 | Cell Cycle (%) G2/M | Cell Cycle (%) S
1 | C[C@]12CC[C@@H]3c4ccc(O)cc4CC[C@H]3[C@@H]1CC[C@@H]2O [Compound E2, 17β-estradiol, reference compound] | 17.34 ± 0.35 *^,‡,§ % | 54.51 ± 0.57 *^,‡,§ % | 28.15 ± 0.52 *^,‡,§ %

Same assay, conditions: 1 nM, 24 h

Row | Compound | Cell Cycle (%) G0/G1 | Cell Cycle (%) G2/M | Cell Cycle (%) S
2 | C[C@]12CC[C@@H]3c4ccc(O)cc4CC[C@H]3[C@@H]1CC[C@@H]2O [Compound E2, 17β-estradiol, reference compound] | 25.34 ± 0.36 *^,‡,§ % | 45.14 ± 0.33 *^,‡,§ % | 29.52 ± 0.46 *^,‡,§ %

Target: estrogen receptor α
Assay: not given
Settings: Table S1, PDB ligands; cited from earlier work

Row | Compound | pKi
3 | O=C(c1ccc(OCCN2CCCC2)cc1)c1c(-c2ccc(O)cc2)sc2cc(O)ccc12 [Compound 2R6Y] | 9.5
4 | CC1CCN(CCOc2ccc(C(=O)c3c(-c4ccc(O)cc4)sc4cc(O)ccc34)cc2)CC1 [Compound 2R6W] | 9.4

Same assay, conditions: cited from earlier work

Row | Compound | pIC50
5 | Oc1ccc([C@@H]2Sc3cc(O)ccc3O[C@@H]2c2ccc(OCCN3CCCCC3)cc2)cc1 [Compound 1SJ0] | 9.09
6 | CC1(O)CCC2c3ccc4cc(O)ccc4c3CCC21C (stereo not drawn) [Compound 2B1Z] | 7.10

Same assay, conditions: crystal test set TSCRY (WT and MUT complexes); cited from earlier work

Row | Compound | pKi
7 | OCc1cc(Br)c(-c2ccc(O)cc2)c(-c2ccoc2)c1 [Compound 4DMA] | 5.60
8 | Oc1ccc(C(c2ccc(O)cc2)(C(F)(F)F)C(F)(F)F)cc1 [Compound 3UUA] | 8.79
9 | Oc1ccc(C(=C(Cl)Cl)c2ccc(O)cc2)cc1 [Compound 3UUC] | 5.70
10 | C[C@H]1CCC[C@H](O)CCC/C=C/c2cc(O)cc(O)c2C(=O)O1 [Compound 4TUZ] | 10.00
11 | C[C@H]1CCC[C@H](O)CCCCCc2cc(O)cc(O)c2C(=O)O1 [Compound 4MG8] | 10.00
12 | CC(C)(c1ccc(O)cc1)c1ccc(O)cc1 [Compound 3UU7] | 8.79
13 | O=C(c1ccc(O)cc1O)c1ccc(O)cc1O [Compound 4MGC] | 7.00

Same assay, conditions: ligands of mutated (MUT) ERα complexes, training set; cited from earlier work

Row | Compound | pIC50
14 | Oc1ccc(-c2n[nH]c3cc(O)ccc23)c(O)c1 [Compound 2QA6] | 7.30
15 | O=C(c1ccc(OCCN2CCCC2)cc1)c1c(-c2ccc(O)cc2)sc2cc(O)ccc12 [Compound 2R6Y] | 8.90
16 | CC1CCN(CCOc2ccc(C(=O)c3c(-c4ccc(O)cc4)sc4cc(O)ccc34)cc2)CC1 [Compound 2R6W] | 8.60
17 | Cc1cc(F)ccc1-c1c(Cc2ccc(/C=C/C(=O)O)cc2)c2ccc(O)cc2oc1=O [Compound 5AK2] | 8.40

Same assay, conditions: ligands of wild-type (WT) ERα complexes, training set; cited from earlier work

Row | Compound | pIC50
18 | CC/C(=C(\c1ccccc1)c1ccc(/C=C/C(=O)O)cc1)c1ccccc1 [Compound 1R5K] | 7.40
19 | Oc1ccc2c(c1)CCN(c1ccccc1)[C@H]2c1ccc(N2CCC3CCCCN3C2)cc1 (stereo partly drawn) [Compound 1XQC] | 7.20

Same assay, conditions: modeled test set TSMOD1; cited from earlier work

Row | Compound | pIC50
20 | Clc1ccccc1CN=Cc1cn(-c2ccccc2)nc1-c1ccccc1 [Compound I11-4a9] | 4.89
21 | O=c1c(O)c(-c2ccc(O)c(O)c2)oc2cc(O)cc(O)c12 [Quercetin] | 4.76
22 | Cc1ccc(N=Cc2cn(-c3ccc([N+](=O)[O-])cc3)nc2-c2ccccc2)cc1 [Compound I11-4b2] | 3.58
23 | O=C1C[C@@H](c2ccc(O)cc2)Oc2cc(O)cc(O)c21 [Naringenin] | 4.18
24 | Cc1ccc(N=Cc2cn(-c3ccccc3)nc2-c2ccccc2)cc1[N+](=O)[O-] [Compound I11-4a8] | 5.4
25 | O=c1c(O)c(-c2ccc(O)c(O)c2)oc2cc(O)ccc12 [Fisetin] | 5.38
26 | Cc1ccccc1N=Cc1cn(-c2ccccc2)nc1-c1ccccc1 [Compound I11-4a1a] | 4.33
27 | Cc1ccccc1N=Cc1cn(-c2ccc([N+](=O)[O-])cc2)nc1-c1ccccc1 [Compound I11-4b1] | 3.58
28 | COc1ccc([C@@H]2CC(=O)c3c(O)cc(O)cc3O2)cc1O [Hesperetin] | 4.4
29 | O=c1c(O)c(-c2ccccc2)oc2cc(O)cc(O)c12 [Galangin] | 4.81
30 | Cc1cccc(C)c1N=Cc1cn(-c2ccccc2)nc1-c1ccccc1 [Compound I11-4a2] | 4.13
31 | O=[N+]([O-])c1ccc(-n2cc(C=Nc3ccc(Cl)cc3)c(-c3ccccc3)n2)cc1 [Compound I11-4b3] | 3.61
32 | FC(F)(F)c1ccccc1CN=Cc1cn(-c2ccccc2)nc1-c1ccccc1 [Compound I11-4a10] | 3.61
33 | O=c1cc(-c2ccccc2)oc2cc(O)c(O)c(O)c12 [Baicalein] | 4.71
34 | Cc1ccc(N=Cc2cn(-c3ccc([N+](=O)[O-])cc3)nc2-c2ccccc2)cc1[N+](=O)[O-] [Compound I11-4b6] | 3.63
35 | COc1ccc(-c2cc(=O)c3c(O)c(OC)c(OC)cc3o2)cc1O [Eupatorin] | 5.09
36 | Cc1ccc(N=Cc2cn(-c3ccccc3)nc2-c2ccccc2)cc1 [Compound I11-4a3b] | 4.25
37 | Brc1ccc(N=Cc2cn(-c3ccccc3)nc2-c2ccccc2)cc1 [Compound I11-4a5] | 5.52

Same assay, conditions: modeled test set TSMOD2; cited from earlier work

Row | Compound | pKi
38 | CCc1c(-c2ccc(O)cc2)nn(-c2ccc(O)cc2)c1-c1ccc(OCCN(C)C)cc1 [Compound I3-I-D] | 8.48
39 | CCc1c(-c2ccc(O)cc2)nn(-c2ccc(O)cc2)c1-c1ccc(OCCN2CCCC2)cc1 [Compound I3-I-C2] | 8.72
40 | CCc1c(-c2ccc(O)cc2)nn(-c2ccc(O)cc2)c1-c1ccc(O)cc1 [Compound I3-I2] | 9.08
41 | COc1cc(C=CC=CC(=O)CCc2ccccc2)ccc1O [Compound I6-14] | 6.01
42 | c1ccc(CNc2nc(NCc3ccccc3)nc(NCc3ccccc3)n2)cc1 [Compound I4-1c] | 3.39
43 | CCCNc1nc(NCCC)nc(NCCC)n1 [Compound I4-1b] | 3.10
44 | CCN(CC)CCOc1ccc(-c2c(C)c(-c3ccc(O)cc3)nn2-c2ccc(O)cc2)cc1 [Compound I3-I-E1] | 8.42
45 | CCc1c(-c2ccc(O)cc2)nn(-c2ccc(O)cc2)c1-c1ccc(OCCN(CC)CC)cc1 [Compound I3-I-E2] | 8.74
46 | Cc1c(-c2ccc(O)cc2)nn(-c2ccc(O)cc2)c1-c1ccc(OCCN2CCCC2)cc1 [Compound I3-I-C1] | 7.60
47 | CC(C)CNc1nc(NCC(C)C)nc(NCC(C)C)n1 [Compound I4-1a] | 3.19
48 | CCc1c(-c2ccc(O)cc2)nn(-c2ccc(O)cc2)c1-c1ccc(OCC(O)CO)cc1 (stereo not drawn) [Compound I3-I-G] | 8.37
49 | CCc1c(-c2ccc(O)cc2)nn(-c2ccc(O)cc2)c1-c1ccc(OCCN2CCOCC2)cc1 [Compound I3-I-B] | 8.49
50 | O=C(C=CC=Cc1ccc([N+](=O)[O-])cc1)CCc1ccccc1 [Compound I6-16] | 6.29
51 | COc1ccc(CCC(=O)C=CC=Cc2ccc(O)c(OC)c2)cc1 [Compound I6-12] | 5.86
52 | CCCc1c(-c2ccc(O)cc2)nn(-c2ccc(O)cc2)c1-c1ccc(OCCN2CCCCC2)cc1 [Compound I3-I-A3] | 8.36
53 | CCc1c(-c2ccc(O)cc2)nn(-c2ccc(O)cc2)c1-c1ccc(OCCN2CCCC2=O)cc1 [Compound I3-I-F] | 8.64
54 | COc1ccc(CCC(=O)C=CC=Cc2ccc(N(C)C)cc2)cc1 [Compound I6-18] | 5.66
55 | CCCc1c(-c2ccc(O)cc2)nn(-c2ccc(O)cc2)c1-c1ccc(O)cc1 [Compound I3-I3] | 9.23
56 | COc1ccc(CCC(=O)C=CC=Cc2ccccc2)cc1 [Compound I6-17] | 5.83
57 | Cc1c(-c2ccc(O)cc2)nn(-c2ccc(O)cc2)c1-c1ccc(OCCN2CCCCC2)cc1 [Compound I3-I-A1] | 7.57
58 | O=C(C=CC=Cc1ccccc1)CCc1ccccc1 [Compound I6-1] | 6.19
59 | CN(C)c1ccc(C=CC=CC(=O)CCc2ccc(O)cc2)cc1 [Compound I6-10] | 3.63
60 | CN(C)c1ccc(C=CC=CC(=O)CCc2ccccc2)cc1 [Compound I6-19] | 6.04
61 | COc1ccc(CCC(=O)C=CC=Cc2ccc([N+](=O)[O-])cc2)cc1 [Compound I6-15] | 5.63
62 | Cc1c(-c2ccc(O)cc2)nn(-c2ccc(O)cc2)c1-c1ccc(O)cc1 [Compound I3-I1] | 7.25
63 | CCCCc1c(-c2ccc(O)cc2)nn(-c2ccc(O)cc2)c1-c1ccc(O)cc1 [Compound I3-I4] | 8.68
64 | CCc1c(-c2ccc(O)cc2)nn(-c2ccc(O)cc2)c1-c1ccc(OCCN2CCCCC2)cc1 [Compound I3-I-A2] | 8.60

Same assay, conditions: modeled test set TSMOD3; cited from earlier work

Row | Compound | pRBA
65 | O=c1c(-c2ccc(O)c(O)c2)coc2cc(O)ccc12 [-Trihydroxy isoflavone] | 5.35
66 | O=c1cc(-c2ccccc2)oc2ccc(O)cc12 [6-Hydroxyflavone] | 6.40
67 | COc1ccc(-c2coc3cc(O)cc(O)c3c2=O)cc1 [Biochanin A] | 5.37
68 | O=c1cc(-c2ccccc2)oc2cc(O)c(O)c(O)c12 [Baicalein] | 6.05
69 | O=c1cc(-c2ccc(O)cc2)oc2ccc(O)cc12 [-Dihydroxyflavone] | 3.82
70 | O=c1c(O)c(-c2ccc(O)cc2)oc2ccc(O)cc12 [-Trihydroxy flavone] | 3.35
71 | O=C1CC(c2ccccc2)Oc2ccc(O)cc21 (stereo not drawn) [6-Hydroxyflavanone] | 6.05
